Assay results: US20220000111A1, “METHODS OF INCREASING ALMOND YIELD” (Valent U.S.A. LLC, priority 2020, published 2022)
Values belong to the compound of their own block, whether it stands above or below them.

Experiments:
Type in all cases: in vivo
almond trees [1] = assay: Example 1: foliar AVG-HCl application to almond trees, 2018-2019, nutmeat yield and kernel doubling at harvest; conditions: for percentage of shells harvested that contained two nut kernels, Average / yield at harvest of almond nutmeat, Average: average of trials
Experimental: […] of AVG applications were performed over a 2-year period. Each set of applications included a set of untreated control (“UTC”) trees. For the two sets of applications performed during the 2018 calendar year AVG-HCl was applied to almond trees either between 10% and full bloom (i.e. bloom) or between 6-7 weeks following full bloom (i.e. post-bloom). For the three sets of applications performed during the 2019 calendar year an additional application was performed as follows: 3-4 weeks post-bloom in combination with 6-7 weeks post-bloom.

almond trees [2] = assay: Example 4: foliar AVG-HCl application to nonpareil almonds at Newman and Sutter, 2020; conditions: for percentage of shells harvested that contained two nut kernels / yield at harvest of almond nutmeat: nonpareil, 124 g/Ha
Experimental: 2 sets of AVG applications were performed on nonpareil almonds at Newman, Calif. and Sutter, Calif. in 2020. Each set of applications included a set of untreated control (“UTC”) trees. AVG-HCl was applied to almond trees either at 50% bloom (i.e. bloom), shuck split, or 7 days following shuck split.

almond trees [3] = assay: Example 2: foliar AVG-HCl application at full bloom or after, nonpareil and carmel almonds; conditions: for % Kernel Doubling / Nutmeat Yield / Nuts/Tree: 124 g/Ha
Experimental: 2 sets of AVG applications were performed on 2 varieties of almonds, nonpareil and […]. For the two sets of applications performed AVG-HCl was applied to almond trees either at full bloom or after full bloom, specifically at 22, 26, 29 or 33 days after full bloom (“DAFB”).

almond trees [4] = assay: Example 3: foliar AVG-HCl application at full bloom or after, nonpareil and carmel almonds; conditions: for % Kernel Doubling / Nutmeat Yield / Nuts/Tree: 124 g/Ha
Experimental: 2 sets of AVG applications were performed on 2 varieties of almonds, nonpareil and […]. For the two sets of applications performed AVG-HCl was applied to almond trees either at full bloom or after full bloom, specifically 15, 22, 26, 32, 36 or 38 DAFB.

[5] = 3-4 weeks Post-bloom & 6-7 weeks Post-bloom, 2 apps, 62 g/Ha each
[6] = 3-4 weeks Post-bloom & 6-7 weeks Post-bloom, 2 apps, 62 g/Ha each, trial 2019-1
[7] = 3-4 weeks Post-bloom & 6-7 weeks Post-bloom, 2 apps, 62 g/Ha each, trial 2019-2
[8] = 3-4 weeks Post-bloom & 6-7 weeks Post-bloom, 2 apps, 62 g/Ha each, trial 2019-3
[9] = 6-7 weeks Post-bloom, 1 app, 124 g/Ha
[10] = 6-7 weeks Post-bloom, 1 app, 124 g/Ha, trial 2018-1 (second column)
[11] = 6-7 weeks Post-bloom, 1 app, 124 g/Ha, trial 2019-1
[12] = 6-7 weeks Post-bloom, 1 app, 124 g/Ha, trial 2019-2
[13] = 6-7 weeks Post-bloom, 1 app, 124 g/Ha, trial 2019-3
[14] = Bloom, 1 app, 124 g/Ha, trial 2018-1 (second column)
[15] = Bloom, 1 app, 124 g/Ha, trial 2019-1
[16] = Bloom, 1 app, 124 g/Ha, trial 2019-2
[17] = Bloom, 1 app, 124 g/Ha, trial 2019-3
[18] = Newman, 7-days post shuck split
[19] = Sutter, 7-days post shuck split

Structure (SMILES): NCCO/C=C/[C@H](N)C(=O)O (stereo in doubt) [AVG, [S]-trans-2-amino-4-(2-aminoethoxy)-3-butenoic acid]
kernel doubling, in words (almond trees [1]; application during bloom (Table 2)): statistically significant increase in kernel doubling | nutmeat yield, in words (almond trees [1]; application during bloom, versus untreated control (Table 1)): increases nutmeat yield over untreated control | kernel doubling, in words (almond trees [1]; application post-bloom (Table 2)): did not result in a statistically significant increase in kernel doubling | nutmeat yield, in words (almond trees [1]; application post-bloom, versus bloom treatment (Table 1)): greater increase in nutmeat yield than that obtained when treating during bloom | nutmeat yield, in words (almond trees [2]; application during bloom, versus untreated control (Table 7)): increases nutmeat yield over untreated control | kernel doubling, in words (almond trees [2]; application during bloom, Sutter, Calif. trial (Table 8)): statistically significant increase in kernel doubling | kernel doubling, in words (almond trees [2]; application post-bloom (Table 8)): did not result in a statistically significant increase in kernel doubling | nutmeat yield, in words (almond trees [2]; application post-bloom, versus bloom treatment (Table 7)): greater increase in nutmeat yield than that obtained when treating during bloom | nutmeat yield, in words (almond trees [3]; application during bloom or following full bloom, nonpareil and carmel (Tables 3 and 4)): increases nutmeat yield | kernel doubling, in words (almond trees [3]; application during bloom, nonpareil and carmel (Tables 3 and 4)): statistically significant increase in kernel doubling | kernel doubling, in words (almond trees [3]; application post-bloom, nonpareil and carmel (Tables 3 and 4)): did not result in a statistically significant increase in kernel doubling | nutmeat yield, in words (almond trees [4]; application during bloom or following full bloom, nonpareil and carmel (Tables 5 and 6)): increases nutmeat yield | kernel doubling, in words (almond trees [4]; application during bloom, nonpareil and carmel (Tables 5 and 6)): statistically significant increase in kernel doubling | kernel doubling, in words (almond trees [4]; application post-bloom, nonpareil and carmel (Tables 5 and 6)): did not result in a statistically significant increase in kernel doubling

percentage of shells harvested that contained two nut kernels, Average (almond trees [1]; [5]): 1.55 b % | percentage of shells harvested that contained two nut kernels (almond trees [1]; [6]): 1.3 b % | percentage of shells harvested that contained two nut kernels (almond trees [1]; [7]): 1.5 abc % | percentage of shells harvested that contained two nut kernels (almond trees [1]; [8]): 1.9 b % | percentage of shells harvested that contained two nut kernels, Average (almond trees [1]; [9]): 2.11 b % | percentage of shells harvested that contained two nut kernels (almond trees [1]; [10]): 6.6 b % | percentage of shells harvested that contained two nut kernels (almond trees [1]; [11]): 2.5 ab % | percentage of shells harvested that contained two nut kernels (almond trees [1]; [12]): 1.08 bc % | percentage of shells harvested that contained two nut kernels (almond trees [1]; [13]): 0.7 bc % | percentage of shells harvested that contained two nut kernels, Average (almond trees [1]; Bloom, 1 app, 124 g/Ha): 8.62 a % | percentage of shells harvested that contained two nut kernels (almond trees [1]; [14]): 27.7 a % | percentage of shells harvested that contained two nut kernels (almond trees [1]; [15]): 3.5 a % | percentage of shells harvested that contained two nut kernels (almond trees [1]; [16]): 2.92 ab % | percentage of shells harvested that contained two nut kernels (almond trees [1]; [17]): 15.9 a % | percentage of shells harvested that contained two nut kernels (almond trees [2]; [18]): 3.0% | percentage of shells harvested that contained two nut kernels (almond trees [2]; Newman, Bloom (50% bloom)): 2.7% | percentage of shells harvested that contained two nut kernels (almond trees [2]; Newman, Shuck split): 2.2% | percentage of shells harvested that contained two nut kernels (almond trees [2]; [19]): 0.5% | percentage of shells harvested that contained two nut kernels (almond trees [2]; Sutter, Bloom (50% bloom)): 1.2% | percentage of shells harvested that contained two nut kernels (almond trees [2]; Sutter, Shuck split): 0.7% | % Kernel Doubling (almond trees [3]; carmel, 22 DAFB): 5.6 bc % | % Kernel Doubling (almond trees [3]; carmel, 26 DAFB): 3.7 c % | % Kernel Doubling (almond trees [3]; carmel, Full Bloom): 7.6 a % | % Kernel Doubling (almond trees [3]; nonpareil, 29 DAFB): 1.4 b % | % Kernel Doubling (almond trees [3]; nonpareil, 33 DAFB): 0.4 b % | % Kernel Doubling (almond trees [3]; nonpareil, Full Bloom): 3.8 a % | % Kernel Doubling (almond trees [4]; carmel, 15 DAFB): 0.4 b % | % Kernel Doubling (almond trees [4]; carmel, 22 DAFB): 1.4 b % | % Kernel Doubling (almond trees [4]; carmel, 32 DAFB): 0.6 b % | % Kernel Doubling (almond trees [4]; carmel, 38 DAFB): 1 b % | % Kernel Doubling (almond trees [4]; carmel, Full Bloom): 8.4 a % | % Kernel Doubling (almond trees [4]; nonpareil, 26 DAFB): 0.8 b % | % Kernel Doubling (almond trees [4]; nonpareil, 36 DAFB): 0.6 c % | % Kernel Doubling (almond trees [4]; nonpareil, Full Bloom): 2.0 a %
Structure (SMILES): Cl.NCCO/C=C/[C@H](N)C(=O)O [AVG-HCl]
yield at harvest of almond nutmeat, Average (almond trees [1]; [5]): 1229 a kilograms per hectare | yield at harvest of almond nutmeat (almond trees [1]; [6]): 1164 kilograms per hectare | yield at harvest of almond nutmeat (almond trees [1]; [7]): 1698 a kilograms per hectare | yield at harvest of almond nutmeat (almond trees [1]; [8]): 825 b kilograms per hectare | yield at harvest of almond nutmeat, Average (almond trees [1]; [9]): 1033 ab kilograms per hectare | yield at harvest of almond nutmeat (almond trees [1]; 6-7 weeks Post-bloom, 1 app, 124 g/Ha, trial 2018-1 (first column)): 721 kilograms per hectare | yield at harvest of almond nutmeat (almond trees [1]; [10]): 1345 a kilograms per hectare | yield at harvest of almond nutmeat (almond trees [1]; [11]): 1168 kilograms per hectare | yield at harvest of almond nutmeat (almond trees [1]; [12]): 1220 b kilograms per hectare | yield at harvest of almond nutmeat (almond trees [1]; [13]): 713 bc kilograms per hectare | yield at harvest of almond nutmeat, Average (almond trees [1]; Bloom, 1 app, 124 g/Ha): 1068 ab kilograms per hectare | yield at harvest of almond nutmeat (almond trees [1]; Bloom, 1 app, 124 g/Ha, trial 2018-1 (first column)): 712 kilograms per hectare | yield at harvest of almond nutmeat (almond trees [1]; [14]): 1148 b kilograms per hectare | yield at harvest of almond nutmeat (almond trees [1]; [15]): 1204 kilograms per hectare | yield at harvest of almond nutmeat (almond trees [1]; [16]): 1198 b kilograms per hectare | yield at harvest of almond nutmeat (almond trees [1]; [17]): 1031 a kilograms per hectare | yield at harvest of almond nutmeat (almond trees [2]; [18]): 3726 a kilograms per hectare | yield at harvest of almond nutmeat (almond trees [2]; Newman, Bloom (50% bloom)): 3188 c kilograms per hectare | yield at harvest of almond nutmeat (almond trees [2]; Newman, Shuck split): 3369 b kilograms per hectare | yield at harvest of almond nutmeat (almond trees [2]; [19]): 3558 ab kilograms per hectare | yield at harvest of almond nutmeat (almond trees [2]; Sutter, Bloom (50% bloom)): 3658 a kilograms per hectare | yield at harvest of almond nutmeat (almond trees [2]; Sutter, Shuck split): 3758 a kilograms per hectare | Nutmeat Yield (almond trees [3]; carmel, 22 DAFB): 7.94 kg/tree | Nuts/Tree (almond trees [3]; carmel, 22 DAFB): 8499 b nuts per tree | Nutmeat Yield (almond trees [3]; carmel, 26 DAFB): 8.50 kg/tree | Nuts/Tree (almond trees [3]; carmel, 26 DAFB): 9676 a nuts per tree | Nutmeat Yield (almond trees [3]; carmel, Full Bloom): 7.04 kg/tree | Nuts/Tree (almond trees [3]; carmel, Full Bloom): 7039 b nuts per tree | Nutmeat Yield (almond trees [3]; nonpareil, 29 DAFB): 8.64 a kg/tree | Nuts/Tree (almond trees [3]; nonpareil, 29 DAFB): 8435 a nuts per tree | Nutmeat Yield (almond trees [3]; nonpareil, 33 DAFB): 7.89 ab kg/tree | Nuts/Tree (almond trees [3]; nonpareil, 33 DAFB): 8350 a nuts per tree | Nutmeat Yield (almond trees [3]; nonpareil, Full Bloom): 8.03 ab kg/tree | Nuts/Tree (almond trees [3]; nonpareil, Full Bloom): 8153 ab nuts per tree | Nutmeat Yield (almond trees [4]; carmel, 15 DAFB): 6.00 kg/tree | Nuts/Tree (almond trees [4]; carmel, 15 DAFB): 7271 nuts per tree | Nutmeat Yield (almond trees [4]; carmel, 22 DAFB): 5.40 kg/tree | Nuts/Tree (almond trees [4]; carmel, 22 DAFB): 7427 nuts per tree | Nutmeat Yield (almond trees [4]; carmel, 32 DAFB): 5.30 kg/tree | Nuts/Tree (almond trees [4]; carmel, 32 DAFB): 6972 nuts per tree | Nutmeat Yield (almond trees [4]; carmel, 38 DAFB): 7.00 kg/tree | Nuts/Tree (almond trees [4]; carmel, 38 DAFB): 8875 nuts per tree | Nutmeat Yield (almond trees [4]; carmel, Full Bloom): 6.10 kg/tree | Nuts/Tree (almond trees [4]; carmel, Full Bloom): 7097 nuts per tree | Nutmeat Yield (almond trees [4]; nonpareil, 26 DAFB): 5.9 kg/tree | Nuts/Tree (almond trees [4]; nonpareil, 26 DAFB): 7636.8 nuts per tree | Nutmeat Yield (almond trees [4]; nonpareil, 36 DAFB): 6 kg/tree | Nuts/Tree (almond trees [4]; nonpareil, 36 DAFB): 7789.8 nuts per tree | Nutmeat Yield (almond trees [4]; nonpareil, Full Bloom): 4.3 kg/tree | Nuts/Tree (almond trees [4]; nonpareil, Full Bloom): 5251.6 nuts per tree
